In patent US6972296B2, “Carboxylic acid derivatives that inhibit the binding of integrins to their receptors” (Encysive Pharmaceuticals Inc., priority 1999, dated 2005) one finds IC50 and melting point data, which are given here for 23 compounds.

pIC50: −log10 of the molar value.

Series [1] concerns the target T1, α4β1 integrin (Homo sapiens, UniProt P05556+P13612).
T1 construct: endogenous in cells; host or cells: Ramos cells
Description: Adhesion of calcein-labeled Ramos cells to CS1 (fibronectin) peptide conjugated ovalbumin. The series is classed as cell-based. The note with it: Ramos cell adhesion to CS1 conjugated ovalbumin. In outline:
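Plates bearing CS1 fibronectin peptide coupled to ovalbumin (0.5 μg/ml coat, 3% BSA block) received calcein-labelled Ramos cells plus compound (100 μM stated) for 30 min at 37 °C. Buffer was TBS pH 7.5 with 1 mM Mg2+, Ca2+, Mn2+; bound cells quantified by fluorescence after lysis; […].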

[2] abbreviates: Table 7, dose required to give 50% inhibition.

T1 sequence (P13612 34-1032): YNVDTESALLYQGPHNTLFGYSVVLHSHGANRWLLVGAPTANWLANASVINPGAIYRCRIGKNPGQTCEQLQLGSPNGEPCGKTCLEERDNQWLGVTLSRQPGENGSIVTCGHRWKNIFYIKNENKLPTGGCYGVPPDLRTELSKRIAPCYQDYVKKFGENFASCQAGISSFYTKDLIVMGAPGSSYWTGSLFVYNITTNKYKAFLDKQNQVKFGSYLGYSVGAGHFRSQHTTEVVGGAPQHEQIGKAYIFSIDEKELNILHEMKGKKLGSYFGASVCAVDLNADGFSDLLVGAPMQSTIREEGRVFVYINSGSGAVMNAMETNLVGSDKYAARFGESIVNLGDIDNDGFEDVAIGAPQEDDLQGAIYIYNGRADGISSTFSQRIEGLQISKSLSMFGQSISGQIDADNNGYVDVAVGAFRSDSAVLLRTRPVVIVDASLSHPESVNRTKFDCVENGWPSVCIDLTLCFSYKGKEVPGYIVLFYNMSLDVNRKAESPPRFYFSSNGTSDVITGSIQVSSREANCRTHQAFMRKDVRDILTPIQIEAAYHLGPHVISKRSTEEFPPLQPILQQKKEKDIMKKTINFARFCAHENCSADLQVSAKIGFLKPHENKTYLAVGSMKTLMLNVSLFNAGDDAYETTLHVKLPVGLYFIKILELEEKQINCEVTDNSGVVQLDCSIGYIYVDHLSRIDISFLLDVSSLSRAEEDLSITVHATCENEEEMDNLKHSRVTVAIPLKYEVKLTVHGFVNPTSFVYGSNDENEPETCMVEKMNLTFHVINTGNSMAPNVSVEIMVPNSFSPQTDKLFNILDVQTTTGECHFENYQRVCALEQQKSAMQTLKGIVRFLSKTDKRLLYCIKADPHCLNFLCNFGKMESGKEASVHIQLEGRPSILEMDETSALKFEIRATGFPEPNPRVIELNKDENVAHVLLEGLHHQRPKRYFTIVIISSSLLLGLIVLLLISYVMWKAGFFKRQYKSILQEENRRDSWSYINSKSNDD
T1 sequence (P05556 21-798): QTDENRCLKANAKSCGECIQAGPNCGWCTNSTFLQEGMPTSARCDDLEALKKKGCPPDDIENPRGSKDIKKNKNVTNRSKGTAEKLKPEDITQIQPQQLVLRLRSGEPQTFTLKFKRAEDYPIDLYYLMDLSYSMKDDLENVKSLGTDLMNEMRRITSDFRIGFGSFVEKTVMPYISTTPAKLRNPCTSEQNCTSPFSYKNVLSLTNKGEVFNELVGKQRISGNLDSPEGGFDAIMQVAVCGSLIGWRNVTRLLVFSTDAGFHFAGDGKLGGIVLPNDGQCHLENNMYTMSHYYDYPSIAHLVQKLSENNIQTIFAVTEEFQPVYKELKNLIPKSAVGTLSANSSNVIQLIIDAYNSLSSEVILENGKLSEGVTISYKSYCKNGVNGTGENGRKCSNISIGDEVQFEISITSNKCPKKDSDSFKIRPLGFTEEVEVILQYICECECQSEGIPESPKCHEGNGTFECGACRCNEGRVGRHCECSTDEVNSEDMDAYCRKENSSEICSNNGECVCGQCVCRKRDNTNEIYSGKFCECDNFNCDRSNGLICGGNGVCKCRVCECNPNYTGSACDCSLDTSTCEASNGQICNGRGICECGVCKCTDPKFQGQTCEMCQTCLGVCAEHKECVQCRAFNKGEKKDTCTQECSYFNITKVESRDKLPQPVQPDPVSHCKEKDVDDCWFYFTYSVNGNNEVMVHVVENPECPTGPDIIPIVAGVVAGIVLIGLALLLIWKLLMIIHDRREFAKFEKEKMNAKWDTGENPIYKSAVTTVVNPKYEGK

As for `CCCCN(C(=O)N[C@@H](CC(=O)O)c1ccc2c(c1)OCO2)C1CC(=O)N(Cc2ccccc2)C1=O` (stereo partly drawn) [(3S)-3-(1,3-benzodioxol-5-yl)-3-[({butyl[2,5-dioxo-1-(phenylmethyl)tetrahydro-1H-pyrrol-3-yl]amino}carbonyl)amino]propanoic acid], the melting point (in general, the temperature, or range, at which the solid turns liquid) lay in the range of 80 to 85 °C. The pIC50 – broadly, the IC50 on a negative log10 scale, so that one unit is a factor of ten – in series [1] (Table 4, 30 minutes at 37° C.) was 4.15.
`CCNC(=O)N(CC)C(=O)Nc1ccn(Cc2ccccc2Cl)c(=O)c1NC(=O)N[C@@H](CC(=O)O)c1ccc(C)cc1` [(3S)-3-{[({1-[(2-chlorophenyl)methyl]-4-[({ethyl[(ethylamino)carbonyl]amino}carbonyl)amino]-2-oxo-1,2-dihydro-3-pyridinyl}amino)carbonyl]amino}-3-(4-methylphenyl)propanoic acid] returned a melting point of 128 to 130 °C. Further, the pIC50 in series [1] (Table 3, 30 minutes at 37° C.) is 8.70.
Consider `Cc1ccc([C@H](CC(=O)O)NC(=O)Nc2c(O)ccn(Cc3ccccc3Cl)c2=O)cc1` [(3S)-3-{[({1-[(2-chlorophenyl)methyl]-4-hydroxy-2-oxo-1,2-dihydro-3-pyridinyl}amino)carbonyl]amino}-3-(4-methylphenyl)propanoic acid], for which the melting point is 113 to 115 °C. The pIC50 in series [1] (Table 3, 30 minutes at 37° C.) was 8.00.
Take `COc1ccc([C@H](CC(=O)O)NC(=O)Nc2c(O)ccn(Cc3ccccc3Cl)c2=O)cc1` [(3S)-3-{[({1-[(2-chlorophenyl)methyl]-4-hydroxy-2-oxo-1,2-dihydro-3-pyridinyl}amino)carbonyl]amino}-3-[4-(methyloxy)phenyl]propanoic acid]: the negative logarithm of the IC50 (pIC50) in series [1] (Table 3, 30 minutes at 37° C.) was 8.30.
On the same count and under the same terms, the figure for `O=C(O)C[C@H](NC(=O)Nc1c(O)ccn(Cc2ccccc2Cl)c1=O)c1ccccc1` [(3S)-3-{[({1-[(2-chlorophenyl)methyl]-4-hydroxy-2-oxo-1,2-dihydro-3-pyridinyl}amino)carbonyl]amino}-3-phenylpropanoic acid] is 8.00.
As to `Cc1ccc([C@H](CC(=O)O)NC(=O)Nc2c(O)c3ccccc3n(Cc3ccccc3Cl)c2=O)cc1` [(3S)-3-{[({1-[(2-chlorophenyl)methyl]-4-hydroxy-2-oxo-1,2-dihydro-3-quinolinyl}amino)carbonyl]amino}-3-(4-methylphenyl)propanoic acid], the melting point was in the range of 134 to 136 °C. Besides, in series [1] (Table 3, 30 minutes at 37° C.), the pIC50 was 8.10.
Regarding `CCn1ccc2cc([C@H](CC(=O)O)NC(=O)Nc3c(O)c4c(n(Cc5ccccc5Cl)c3=O)CCC4)ccc21` [(3S)-3-{[({1-[(2-chlorophenyl)methyl]-4-hydroxy-2-oxo-2,5,6,7-tetrahydro-1H-cyclopenta[b]pyridin-3-yl}amino)carbonyl]amino}-3-(1-ethyl-1H-indol-5-yl)propanoic acid], in series [1] (setting [2]), the pIC50 is 8.30.
Still for that read-out and setting: the result for `CCN(CC)c1cccc([C@H](CC(=O)O)NC(=O)Nc2c(O)c3c(n(Cc4ccccc4Cl)c2=O)CCC3)c1` [(3S)-3-{[({1-[(2-chlorophenyl)methyl]-4-hydroxy-2-oxo-2,5,6,7-tetrahydro-1H-cyclopenta[b]pyridin-3-yl}amino)carbonyl]amino}-3-[3-(diethylamino)phenyl]propanoic acid] reads 8.52; that for `O=C(O)C[C@H](NC(=O)Nc1c(O)c2c(n(Cc3ccccc3Cl)c1=O)CCC2)c1cccc(OC(F)F)c1` [(3S)-3-{[({1-[(2-chlorophenyl)methyl]-4-hydroxy-2-oxo-2,5,6,7-tetrahydro-1H-cyclopenta[b]pyridin-3-yl}amino)carbonyl]amino}-3-{3-[(difluoromethyl)oxy]phenyl}propanoic acid], 8.30.
Same read-out and setting: the figure for `CS(=O)(=O)Nc1cccc([C@H](CC(=O)O)NC(=O)Nc2c(O)c3c(n(Cc4ccccc4Cl)c2=O)CCC3)c1` [(3S)-3-{[({1-[(2-chlorophenyl)methyl]-4-hydroxy-2-oxo-2,5,6,7-tetrahydro-1H-cyclopenta[b]pyridin-3-yl}amino)carbonyl]amino}-3-{3-[(methylsulfonyl)amino]phenyl}propanoic acid] is 8.52.
As to `CCN(c1cccc([C@H](CC(=O)O)NC(=O)Nc2c(O)c3c(n(Cc4ccccc4Cl)c2=O)CCC3)c1)S(C)(=O)=O` [(3S)-3-{[({1-[(2-chlorophenyl)methyl]-4-hydroxy-2-oxo-2,5,6,7-tetrahydro-1H-cyclopenta[b]pyridin-3-yl}amino)carbonyl]amino}-3-{3-[ethyl(methylsulfonyl)amino]phenyl}propanoic acid], the pIC50 in series [1] (setting [2]) was 9.00.
Take `CN(c1cccc([C@H](CC(=O)O)NC(=O)Nc2c(O)c3c(n(Cc4ccccc4Cl)c2=O)CCC3)c1)S(C)(=O)=O` [(3S)-3-{[({1-[(2-chlorophenyl)methyl]-4-hydroxy-2-oxo-2,5,6,7-tetrahydro-1H-cyclopenta[b]pyridin-3-yl}amino)carbonyl]amino}-3-{3-[methyl(methylsulfonyl)amino]phenyl}propanoic acid]: the pIC50 in series [1] (setting [2]) is 8.80.
Consider `Cc1cn(Cc2ccccc2Cl)c(=O)c(NC(=O)N[C@@H](CC(=O)O)c2cccc(C(F)F)c2)c1O` [(3S)-3-{[({1-[(2-chlorophenyl)methyl]-4-hydroxy-5-methyl-2-oxo-1,2-dihydro-3-pyridinyl}amino)carbonyl]amino}-3-[3-(difluoromethyl)phenyl]propanoic acid], for which the negative logarithm of the IC50 (pIC50) in series [1] (setting [2]) is 7.70.
With `Cc1ccc([C@H](CC(=O)O)NC(=O)Nc2c(O)cc(C)n(Cc3ccccc3Cl)c2=O)cc1` [(3S)-3-{[({1-[(2-chlorophenyl)methyl]-4-hydroxy-6-methyl-2-oxo-1,2-dihydro-3-pyridinyl}amino)carbonyl]amino}-3-(4-methylphenyl)propanoic acid], the pIC50 in series [1] (Table 3, 30 minutes at 37° C.) was 7.82.
With `Cc1ccc([C@H](CC(=O)O)NC(=O)Nc2c(C)ccn(Cc3ccccc3Cl)c2=O)cc1C` [(3S)-3-{[({1-[(2-chlorophenyl)methyl]-4-methyl-2-oxo-1,2-dihydro-3-pyridinyl}amino)carbonyl]amino}-3-(3,4-dimethylphenyl)propanoic acid], the pIC50 in series [1] (Table 3, 30 minutes at 37° C.) was 8.00.
Same read-out and setting: the result for `Cc1ccc([C@H](CC(=O)O)NC(=O)Nc2c(C)ccn(Cc3ccccc3Cl)c2=O)cc1` [(3S)-3-{[({1-[(2-chlorophenyl)methyl]-4-methyl-2-oxo-1,2-dihydro-3-pyridinyl}amino)carbonyl]amino}-3-(4-methylphenyl)propanoic acid] reads 8.30; that for `COc1ccc([C@H](CC(=O)O)NC(=O)Nc2c(C)ccn(Cc3ccccc3Cl)c2=O)cc1` [(3S)-3-{[({1-[(2-chlorophenyl)methyl]-4-methyl-2-oxo-1,2-dihydro-3-pyridinyl}amino)carbonyl]amino}-3-[4-(methyloxy)phenyl]propanoic acid], 8.52.
Turning to `Cc1ccc([C@H](CC(=O)O)NC(=O)Nc2cc(C)cn(Cc3ccccc3Cl)c2=O)cc1` [(3S)-3-{[({1-[(2-chlorophenyl)methyl]-5-methyl-2-oxo-1,2-dihydro-3-pyridinyl}amino)carbonyl]amino}-3-(4-methylphenyl)propanoic acid], the pIC50 in series [1] (Table 3, 30 minutes at 37° C.) was 7.15.
As to `Cc1ccc([C@H](CC(=O)O)NC(=O)Nc2c(O)ccn(Cc3ccccc3F)c2=O)cc1` [(3S)-3-{[({1-[(2-fluorophenyl)methyl]-4-hydroxy-2-oxo-1,2-dihydro-3-pyridinyl}amino)carbonyl]amino}-3-(4-methylphenyl)propanoic acid], in series [1] (Table 3, 30 minutes at 37° C.), the negative logarithm of the IC50 (pIC50) is 7.52.
With `Cc1ccc([C@H](CC(=O)O)NC(=O)Nc2c(N3CCC3)ccn(Cc3ccccc3Cl)c2=O)cc1` [(3S)-3-{[({4-(1-azetanyl)-1-[(2-chlorophenyl)methyl]-2-oxo-1,2-dihydro-3-pyridinyl}amino)carbonyl]amino}-3-(4-methylphenyl)propanoic acid], in series [1] (Table 3, 30 minutes at 37° C.), the pIC50 is 8.30.
Consider `Cc1ccc([C@H](CC(=O)O)NC(=O)Nc2c(N)ccn(Cc3ccccc3Cl)c2=O)cc1` [(3S)-3-{[({4-amino-1-[(2-chlorophenyl)methyl]-2-oxo-1,2-dihydro-3-pyridinyl}amino)carbonyl]amino}-3-(4-methylphenyl)propanoic acid], for which the pIC50 in series [1] (Table 3, 30 minutes at 37° C.) was 8.00.
On to `Cc1ccc([C@H](CC(=O)O)NC(=O)Nc2c(N)cc(C)n(Cc3ccccc3Cl)c2=O)cc1` [(3S)-3-{[({4-amino-1-[(2-chlorophenyl)methyl]-6-methyl-2-oxo-1,2-dihydro-3-pyridinyl}amino)carbonyl]amino}-3-(4-methylphenyl)propanoic acid], for which, in series [1] (Table 3, 30 minutes at 37° C.), the pIC50 was 8.00.
The compound `Cc1ccc([C@H](CC(=O)O)NC(=O)Nc2c(OCc3ccccc3)cc(C)n(Cc3ccccc3)c2=O)cc1` [(3S)-3-{[({6-methyl-2-oxo-1-(phenylmethyl)-4-[(phenylmethyl)oxy]-1,2-dihydro-3-pyridinyl}amino)carbonyl]amino}-3-(4-methylphenyl)propanoic acid] gave a melting point of 124 to 126 °C. In addition, the pIC50 in series [1] (Table 3, 30 minutes at 37° C.) was 8.30.
